From the NIST ThermoML archive (doi:10.1016/j.jct.2017.08.004)

Assay: molar heat capacity at constant pressure
Details: 101.33 kPa, Crystal

OC[C@@H](O)[C@@H](O)CO [meso-1,2,3,4-butanetetrol]
Details	molar heat capacity at constant pressure [J/K/mol]
1 K, relaxation calorimetry	0.00103
1.924 K, relaxation calorimetry	0.005451
2 K, relaxation calorimetry	0.006099
2.124 K, relaxation calorimetry	0.007391
2.347 K, relaxation calorimetry	0.009418
2.604 K, relaxation calorimetry	0.01294
2.892 K, relaxation calorimetry	0.01782
3 K, relaxation calorimetry	0.01982
3.203 K, relaxation calorimetry	0.02425
3.549 K, relaxation calorimetry	0.03325
3.937 K, relaxation calorimetry	0.04561
4 K, relaxation calorimetry	0.04786
4.364 K, relaxation calorimetry	0.06293
4.842 K, relaxation calorimetry	0.08785
5 K, relaxation calorimetry	0.09724
5.372 K, relaxation calorimetry	0.1225
5.959 K, relaxation calorimetry	0.1717
6 K, relaxation calorimetry	0.1763
6.613 K, relaxation calorimetry	0.2418
7 K, relaxation calorimetry	0.2944
7.34 K, relaxation calorimetry	0.3445
8 K, relaxation calorimetry	0.4614
8.147 K, relaxation calorimetry	0.493
9 K, relaxation calorimetry	0.6863
9.042 K, relaxation calorimetry	0.6996
10 K, relaxation calorimetry	0.9714
10.11 K, relaxation calorimetry	0.9995
11.21 K, relaxation calorimetry	1.394
12.45 K, relaxation calorimetry	1.929
13.81 K, relaxation calorimetry	2.607
15 K, relaxation calorimetry	3.273
15.35 K, relaxation calorimetry	3.484
17.04 K, relaxation calorimetry	4.582
18.93 K, relaxation calorimetry	5.892
20 K, relaxation calorimetry	6.679
21.01 K, relaxation calorimetry	7.451
23.34 K, relaxation calorimetry	9.268
25 K, relaxation calorimetry	10.62
25.88 K, relaxation calorimetry	11.3
28.73 K, relaxation calorimetry	13.63
30 K, relaxation calorimetry	14.7
31.9 K, relaxation calorimetry	16.25
35 K, relaxation calorimetry	18.79
35.42 K, relaxation calorimetry	19.19
39.33 K, relaxation calorimetry	22.36
40 K, relaxation calorimetry	22.84
43.67 K, relaxation calorimetry	25.77
45 K, relaxation calorimetry	26.81
48.45 K, relaxation calorimetry	29.39
50 K, relaxation calorimetry	30.63
53.77 K, relaxation calorimetry	33.35
55 K, relaxation calorimetry	34.26
59.7 K, relaxation calorimetry	37.69
60 K, relaxation calorimetry	37.94
65 K, relaxation calorimetry	41.5
66.26 K, relaxation calorimetry	42.34
70 K, relaxation calorimetry	44.95
73.58 K, relaxation calorimetry	47.19
75 K, relaxation calorimetry	48.3
80 K, relaxation calorimetry	51.54
81.69 K, relaxation calorimetry	52.8
85 K, relaxation calorimetry	54.68
90 K, relaxation calorimetry	57.74
90.67 K, relaxation calorimetry	58.3
95 K, relaxation calorimetry	60.72
100 K, relaxation calorimetry	63.64
100.62 K, relaxation calorimetry	63.74
110 K, relaxation calorimetry	69.28
110.75 K, relaxation calorimetry	69.63
120 K, relaxation calorimetry	74.73
120.81 K, relaxation calorimetry	75.51
130 K, relaxation calorimetry	80.03
130.85 K, relaxation calorimetry	80.63
140 K, relaxation calorimetry	85.23
140.98 K, relaxation calorimetry	85.76
150 K, relaxation calorimetry	90.34
151.1 K, relaxation calorimetry	90.49
160 K, relaxation calorimetry	95.4
161.19 K, relaxation calorimetry	95.3
170 K, relaxation calorimetry	100.41
171.29 K, relaxation calorimetry	100.67
180 K, relaxation calorimetry	105.4
181.37 K, relaxation calorimetry	106.96
188.15 K, Small sample (50 mg) DSC	104.81
189.15 K, Small sample (50 mg) DSC	105.65
190 K, relaxation calorimetry	110.37
190.15 K, Small sample (50 mg) DSC	106.41
191.15 K, Small sample (50 mg) DSC	107.06
191.45 K, relaxation calorimetry	111.84
192.15 K, Small sample (50 mg) DSC	107.53
193.15 K, Small sample (50 mg) DSC	107.94
194.15 K, Small sample (50 mg) DSC	108.84
195.15 K, Small sample (50 mg) DSC	109.73
196.15 K, Small sample (50 mg) DSC	110.56
197.15 K, Small sample (50 mg) DSC	111.25
198.15 K, Small sample (50 mg) DSC	111.77
199.15 K, Small sample (50 mg) DSC	112.42
200 K, relaxation calorimetry	115.34
200.15 K, Small sample (50 mg) DSC	113.07
201.15 K, Small sample (50 mg) DSC	113.73
201.6 K, relaxation calorimetry	116.2
202.15 K, Small sample (50 mg) DSC	114.29
203.15 K, Small sample (50 mg) DSC	114.78
204.15 K, Small sample (50 mg) DSC	115.4
205.15 K, Small sample (50 mg) DSC	115.95
206.15 K, Small sample (50 mg) DSC	116.45
207.15 K, Small sample (50 mg) DSC	116.98
208.15 K, Small sample (50 mg) DSC	117.43
209.15 K, Small sample (50 mg) DSC	117.85
210 K, relaxation calorimetry	120.31
210.15 K, Small sample (50 mg) DSC	118.46
211.15 K, Small sample (50 mg) DSC	119.05
211.7 K, relaxation calorimetry	120.82
212.15 K, Small sample (50 mg) DSC	119.45
213.15 K, Small sample (50 mg) DSC	120.03
214.15 K, Small sample (50 mg) DSC	120.6
215.15 K, Small sample (50 mg) DSC	120.96
216.15 K, Small sample (50 mg) DSC	121.61
217.15 K, Small sample (50 mg) DSC	122.09
218.15 K, Small sample (50 mg) DSC	122.56
219.15 K, Small sample (50 mg) DSC	123.25
220 K, relaxation calorimetry	125.28
220.15 K, Small sample (50 mg) DSC	123.79
221.15 K, Small sample (50 mg) DSC	124.32
221.79 K, relaxation calorimetry	126.14
222.15 K, Small sample (50 mg) DSC	124.76
223.15 K, Small sample (50 mg) DSC	125.31
224.15 K, Small sample (50 mg) DSC	125.9
225.15 K, Small sample (50 mg) DSC	126.32
226.15 K, Small sample (50 mg) DSC	126.8
227.15 K, Small sample (50 mg) DSC	127.31
228.15 K, Small sample (50 mg) DSC	127.86
229.15 K, Small sample (50 mg) DSC	128.26
230 K, relaxation calorimetry	130.27
230.15 K, Small sample (50 mg) DSC	128.74
231.15 K, Small sample (50 mg) DSC	129.25
231.89 K, relaxation calorimetry	131.18
232.15 K, Small sample (50 mg) DSC	129.79
233.15 K, Small sample (50 mg) DSC	130.29
234.15 K, Small sample (50 mg) DSC	130.84
235.15 K, Small sample (50 mg) DSC	131.47
236.15 K, Small sample (50 mg) DSC	132.03
237.15 K, Small sample (50 mg) DSC	132.65
238.15 K, Small sample (50 mg) DSC	133.18
239.15 K, Small sample (50 mg) DSC	133.62
240 K, relaxation calorimetry	135.27
240.15 K, Small sample (50 mg) DSC	134.1
241.15 K, Small sample (50 mg) DSC	134.58
241.92 K, relaxation calorimetry	136.06
242.15 K, Small sample (50 mg) DSC	135
243.15 K, Small sample (50 mg) DSC	135.48
244.15 K, Small sample (50 mg) DSC	135.91
245.15 K, Small sample (50 mg) DSC	136.33
246.15 K, Small sample (50 mg) DSC	136.8
247.15 K, Small sample (50 mg) DSC	137.31
248.15 K, Small sample (50 mg) DSC	137.82
249.15 K, Small sample (50 mg) DSC	138.21
250 K, relaxation calorimetry	140.29
250.15 K, Small sample (50 mg) DSC	138.96
251.15 K, Small sample (50 mg) DSC	139.41
251.99 K, relaxation calorimetry	141.26
252.15 K, Small sample (50 mg) DSC	139.85
253.15 K, Small sample (50 mg) DSC	140.35
254.15 K, Small sample (50 mg) DSC	140.97
255.15 K, Small sample (50 mg) DSC	141.49
256.15 K, Small sample (50 mg) DSC	142.02
257.15 K, Small sample (50 mg) DSC	142.62
258.15 K, Small sample (50 mg) DSC	143.2
259.15 K, Small sample (50 mg) DSC	143.78
260 K, relaxation calorimetry	145.33
260.15 K, Small sample (50 mg) DSC	144.21
261.15 K, Small sample (50 mg) DSC	144.74
262.11 K, relaxation calorimetry	146.2
262.15 K, Small sample (50 mg) DSC	145.34
263.15 K, Small sample (50 mg) DSC	145.66
